One experiment deals with T1, Human Met (Homo sapiens, UniProt P08581).
T1 construct: Human MET (residues 956-1390)
In words: Human Met kinase assay (33P radiometric / HTRF KinEase). Particulars: protocols of Examples D-1 and/or D-2; read-out: c-Met IC50. The experiment is classed as biochemical. An outline of the steps:
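Two formats gave IC50s by curve fitting. HTRF KinEase used MET residues 956-1390 with 1 μM biotin-peptide and 3.0 μM ATP (Km) for 40 min at room temperature, ten doses in 3% DMSO, 665/620 nm read. The 33P transfer assay used mutant Met R974-S1390 A1209G/V1290L (3.4 nM), 10 μM ATP, 250 μM peptide, pH 7.0, 40 min, nine doses from 1 μM.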

For the next experiment, the target named is T2, Human Mer (Homo sapiens, UniProt Q12866).
T2 construct: Human Mer (residues R557-E882 with H628Q and R794A, 0.7 nM); purchased Eurofins Pharma Discovery Services UK Limited (KinaseProfiler service)
T2 sequence (Q12866 557-882 limits assumed): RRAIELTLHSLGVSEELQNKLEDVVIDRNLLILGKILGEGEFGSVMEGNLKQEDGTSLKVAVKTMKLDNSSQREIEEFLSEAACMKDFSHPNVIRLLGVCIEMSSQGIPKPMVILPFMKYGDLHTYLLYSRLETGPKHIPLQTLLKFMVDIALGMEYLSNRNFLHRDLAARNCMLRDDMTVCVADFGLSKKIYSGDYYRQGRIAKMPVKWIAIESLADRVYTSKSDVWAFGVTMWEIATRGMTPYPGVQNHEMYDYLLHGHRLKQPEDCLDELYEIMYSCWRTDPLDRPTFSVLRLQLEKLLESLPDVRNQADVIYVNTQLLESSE
In words: Human Mer kinase assay (33P radiometric / HTRF KinEase). The experiment is classed as biochemical. Conditions: protocols of Examples C-1 and/or C-2. An outline of the steps:
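Two formats yield IC50 values. HTRF KinEase used MER residues 528-999 with ATP at Km (40 μM), 1 μM biotin-peptide, 60 min RT, […], 10 concentrations. 33P filter assay used 0.7 nM Mer R557-E882 (H628Q/R794A), 10 μM ATP, 250 μM peptide, 40 min RT, top 1 μM.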

Where a name gives a salt, the structure may show the parent alone.

T1 sequence (P08581 974-1390 limits assumed): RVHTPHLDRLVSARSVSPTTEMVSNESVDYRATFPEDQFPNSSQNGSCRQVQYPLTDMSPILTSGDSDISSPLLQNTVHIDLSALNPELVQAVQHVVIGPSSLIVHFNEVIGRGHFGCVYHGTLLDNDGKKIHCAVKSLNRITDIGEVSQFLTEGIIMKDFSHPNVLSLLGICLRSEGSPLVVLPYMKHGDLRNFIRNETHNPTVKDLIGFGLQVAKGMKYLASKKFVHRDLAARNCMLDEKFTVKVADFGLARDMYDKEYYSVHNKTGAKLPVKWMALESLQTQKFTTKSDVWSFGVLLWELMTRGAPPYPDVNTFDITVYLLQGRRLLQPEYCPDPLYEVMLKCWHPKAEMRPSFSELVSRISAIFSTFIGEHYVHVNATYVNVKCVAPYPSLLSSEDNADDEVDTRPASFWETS

One may read the IC50 as the concentration that gives 50% inhibition. For the compound `COc1cc2nccc(Oc3ccc(NC(=O)c4cn(C)c(C)c(C5=CCCC5)c4=O)cc3F)c2nc1OC` [Compound 1, 5-(Cyclopenten-1-yl)-N-[4-[(6,7-dimethoxy-1,5-naphthyridin-4-yl)oxy]-3-fluorophenyl]-1,6-dimethyl-4-oxopyridine-3-carboxamide], the half-inhibitory concentration (IC50) at Human Met and on Human Mer was at most 100 nM in each case.

As to `COc1cc2nccc(Oc3ccc(NC(=O)c4c(C)nc(C)c(C5=CCCC5)c4O)cc3F)c2nc1OC` [Compound 1-2, 5-(Cyclopenten-1-yl)-N-[4-[(6,7-dimethoxy-1,5-naphthyridin-4-yl)oxy]-3-fluorophenyl]-4-hydroxy-2,6-dimethylpyridine-3-carboxamide hydrochloride], the half-inhibitory concentration (IC50) on Human Met and against Human Mer was at most 100 nM throughout.

Turning to `COc1cc2nccc(Oc3ccc(NC(=O)c4cnc(C)c(C5=CCOCC5)c4O)cc3F)c2nc1OC` [Compound 1-3, 5-(3,6-Dihydro-2H-pyran-4-yl)-N-[4-[(6,7-dimethoxy-1,5-naphthyridin-4-yl)oxy]-3-fluorophenyl]-4-hydroxy-6-methylpyridine-3-carboxamide], the 50% inhibitory concentration (IC50) at Human Met and at Human Mer was at most 100 nM throughout.

For `COc1cnc2c(Oc3ccc(NC(=O)c4cnc(C)c(C5=CCOCC5)c4O)cc3F)ccnc2c1` [Compound 1-4, 5-(3,6-Dihydro-2H-pyran-4-yl)-N-[3-fluoro-4-[(7-methoxy-1,5-naphthyridin-4-yl)oxy]phenyl]-4-hydroxy-6-methylpyridine-3-carboxamide], the IC50 on Human Met and against Human Mer was at most 100 nM in each case.

In the case of `COc1ccc2nccc(Oc3ccc(NC(=O)c4cnc(C)c(C5=CCOCC5)c4O)cc3F)c2n1` [Compound 1-5, 5-(3,6-Dihydro-2H-pyran-4-yl)-N-[3-fluoro-4-[(6-methoxy-1,5-naphthyridin-4-yl)oxy]phenyl]-4-hydroxy-6-methylpyridine-3-carboxamide], the values for the half-maximal inhibitory concentration (IC50) at Human Met and on Human Mer were above 300 nM and at most 100 nM, respectively.

On to `COc1ccc2nccc(Oc3ccc(NC(=O)c4cnc(C)c(C5=CCCCC5)c4O)cc3F)c2n1` [Compound 1-6, 5-(Cyclohexen-1-yl)-N-[3-fluoro-4-[(6-methoxy-1,5-naphthyridin-4-yl)oxy]phenyl]-4-hydroxy-6-methylpyridine-3-carboxamide], for which the IC50 on Human Met and at Human Mer was at most 100 nM in each case.

As to `COc1ccc2nccc(Oc3ccc(NC(=O)c4cnc(C)c(C5=CCCC5)c4O)cc3F)c2n1` [Compound 1-7, 5-(Cyclopenten-1-yl)-N-[3-fluoro-4-[(6-methoxy-1,5-naphthyridin-4-yl)oxy]phenyl]-4-hydroxy-6-methylpyridine-3-carboxamide], the half-maximal inhibitory concentration (IC50) at Human Met and at Human Mer was at most 100 nM throughout.

Consider `COc1cnc2c(Oc3ccc(NC(=O)c4cnc(C)c(C5=CCCC5)c4O)cc3F)ccnc2c1` [Compound 1-9, 5-(Cyclopenten-1-yl)-N-[3-fluoro-4-[(7-methoxy-1,5-naphthyridin-4-yl)oxy]phenyl]-4-hydroxy-6-methylpyridine-3-carboxamide], for which the IC50 on Human Met and against Human Mer was at most 100 nM each time.

Regarding `COc1cc2nccc(Oc3ccc(NC(=O)c4cn(C)c(C)c(C5CCCC5)c4=O)cc3F)c2nc1OC` [Compound 2, 5-Cyclopentyl-N-[4-[(6,7-dimethoxy-1,5-naphthyridin-4-yl)oxy]-3-fluorophenyl]-1,6-dimethyl-4-oxopyridine-3-carboxamide], the IC50 on Human Met and at Human Mer was at most 100 nM throughout.

Regarding `COc1cc2nccc(Oc3ccc(NC(=O)c4c(C)nc(C)c(C5=CCCCC5)c4O)cc3F)c2nc1OC` [Compound 2-3, 5-(Cyclohexen-1-yl)-N-[4-[(6,7-dimethoxy-1,5-naphthyridin-4-yl)oxy]-3-fluorophenyl]-4-hydroxy-2,6-dimethylpyridine-3-carboxamide], the 50% inhibitory concentration (IC50) at Human Met and on Human Mer was at most 100 nM in each case.

These data come from patent US20240158393A1, “PYRIDONE COMPOUNDS AND METHODS OF USE” (Exelixis, Inc., priority 2021, published 2024).
